Measured values taken from patent US5969017A, “Methods of treating or preventing cardiac arrhythmia” (Merck & Co., Inc., priority 1997, dated 1999).
“Also recorded” adds a separate entry of the source. Like-named read-outs stand apart in the source and are kept apart here.

Biological target: T1, hKv1.5 expressed in Chinese Hamster Ovary (CHO) cells (Homo sapiens, UniProt P22460)
T1 construct: expressed in transfected cells; host or cells: CHO-K1 cells (CHOKI in source), pcDNAI/Neo plasmid, G418-selected clones
Experiment: Voltage clamp measurement of hKv1.5 block (rested state, use-dependent, rate-dependent) in CHO cells
Format: cell-based
Conditions: for Rate-Dpdnt Ratio: 3 Hz vs 1 Hz, last pulse, <1 = rate-dependent; for Use-Dpdnt Ratio: 10th vs 1st pulse @ 1 Hz, <1 = use-dependent; for selective blockade of hKv1.5 (in words): relative to other cardiac K+ channels; for rate-dependent ratio for block of hKv1.5 (bound) / use-dependent ratio for block of hKv1.5 (bound): summary of Table 1
Method: A. Measurement of Kv1.5 in CHO cells
Expression of Kv1.5 in CHO Cells
A cDNA encoding Kv1.5, isolated from a human fetal heart library, was subcloned into pcDNAI/Neo (Invitrogen) as a Hind III--Xba I fragment.
CHOKI cells were plated at 2.7×10^4 cells/60 mm dish and incubated at 37° C., in a 5% CO2 environment for three days. Cells were then washed twice and covered with 3 ml of OptiMEM medium (Gibco). Plasmid/DOTAP solution (consisting of […] of Kv1.5 in pcDNAI/Neo and […] DOTAP transfection reagent (Boehringer Mannheim) in 1 ml of OptiMEM) was added dropwise to each plate while swirling. Plates were incubated overnight and the media then changed to 5 mls of F12 (Gibco) supplemented with 10% FBS (Sigma), 1,000 U/ml penicillin […] streptomycin (Gibco), and 2 mM glutamine (Gibco). After two more days, the cells were trypsinized and replated on 100 mm dishes in supplemented F12 media including 1 mg/ml G418 (Gibco). The medium was changed daily until nontransfected cells were killed. Cell lines were grown from individual clones and tested for expression of Kv1.5 using both the ^86 RB efflux assay and voltage clamp protocols. […] These cells were maintained in culture and on each experimental day were freshly isolated by mild trypsinization.
The patch-clamp technique was used to record ionic currents in the whole-cell configuration. Patch pipettes were obtained using a two stage puller from square bore (1.0 mm o.d.) borosillicate capillary tubing. Pipettes were filled with the following solution (in mM/L): 110 K-Gluconate or K-Aspartate, 20 KCl, 5 MgATP, 5 EGTA, 5-10 HEPES, pH 7.2. The electrodes had tip resistances ranging from 3 to 10 Mohm when filled with this solution. Following seal formation, the membrane was ruptured by gentle suction to establish the whole-cell configuration, and negative pressure was maintained on the pipette using a 1 ml gas-tight syringe attached via air tight tubing to the suction port of the microelectrode holder. […] Currents were sampled at 5 kHz using an Axopatch 200 A amplifier (Axon Instruments) or a List EPC-7 clamp amplifier (List Electronic) and were low pass filtered at 1 kHz.
Measurements of Kv1.5 Expressed Currents:
Kv1.5 currents were elicited by 150 ms depolarizing test pulses to +40 mV from a holding potential of -80 mV. The effects of test agents were assessed at steady-state. Data was analyzed as % block from control current amplitude. The amplitude of Kv1.5 was measured as the amplitude of the time-dependent net outward current at the end of the test pulse, relative to the holding current level. […] All experiments were performed at room temperature (22-24° C.).
C. Measurement of Use-Dependent and Rate-Dependent Block.
Pulses were applied in 10 second long trains delivered after 30 second rest intervals at frequencies of 1 Hz (10 pulses) or 3 Hz (30 pulses). Percent block of the current is defined as the % decrease in the current amplitude produced by an agent during a given pulse relative to the control current amplitude for that pulse. Rested-state block is the block of the current during the first pulse in a train following the 30 sec rest period. Use-dependent block is block that occurs to a progessively greater extent with each successive depolarization in a train or sequence of pulses or depolarizations delivered at a given rate or frequency. Thus, during a train of 10 depolarizations at frequency of 1 Hz, use-dependent block is assessed as the ratio of the amount of block for the 10th pulse relative to block for the 1st pulse (rested state block) of the train. Rate-dependent block is block that occurs to a greater extent or preferentially at faster rates of depolarization or heart rates. Thus, rate-dependent block is assessed as the ratio of the amount of block of the current during the last pulse of the 10 sec train at 3 Hz vs. 1 Hz.

[1] = 30 nM, 1st pulse @ 1 Hz, +40 mV from -80 mV, read-out: Average % Block, Rested State, 1st pulse
[2] = 30 nM, 10th pulse @ 1 Hz, read-out: Average % Block, Use-Dpdnt, 10th pulse
[3] = 30 nM, 30th pulse @ 3 Hz, read-out: Average % Block, Rate-Dpdnt, 30th pulse
[4] = 100 nM, 1st pulse @ 1 Hz, read-out: Average % Block, Rested State, 1st pulse
[5] = 100 nM, 10th pulse @ 1 Hz, read-out: Average % Block, Use-Dpdnt, 10th pulse
[6] = 100 nM, 30th pulse @ 3 Hz, read-out: Average % Block, Rate-Dpdnt, 30th pulse
[7] = 300 nM, 1st pulse @ 1 Hz, read-out: Average % Block, Rested State, 1st pulse
[8] = 300 nM, 10th pulse @ 1 Hz, read-out: Average % Block, Use-Dpdnt, 10th pulse

T1 sequence (P22460 whole entry): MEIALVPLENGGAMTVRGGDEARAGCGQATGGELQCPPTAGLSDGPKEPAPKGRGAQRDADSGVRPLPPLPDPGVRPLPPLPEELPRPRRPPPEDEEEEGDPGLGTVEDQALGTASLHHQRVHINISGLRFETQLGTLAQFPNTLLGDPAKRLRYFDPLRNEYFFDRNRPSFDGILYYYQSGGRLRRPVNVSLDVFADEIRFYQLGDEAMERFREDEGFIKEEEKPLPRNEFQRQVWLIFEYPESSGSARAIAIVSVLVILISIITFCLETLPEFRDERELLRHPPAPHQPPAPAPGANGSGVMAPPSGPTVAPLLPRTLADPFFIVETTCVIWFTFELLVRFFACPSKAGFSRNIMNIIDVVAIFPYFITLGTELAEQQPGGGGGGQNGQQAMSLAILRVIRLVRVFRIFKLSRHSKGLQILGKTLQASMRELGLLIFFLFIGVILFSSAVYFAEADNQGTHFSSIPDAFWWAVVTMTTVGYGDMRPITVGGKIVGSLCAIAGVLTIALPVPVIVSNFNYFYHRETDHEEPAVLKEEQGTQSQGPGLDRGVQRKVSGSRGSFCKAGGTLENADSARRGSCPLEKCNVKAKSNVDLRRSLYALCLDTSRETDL

Row | SMILES | rate-dependent block of hKv1.5 (in words) | use-dependent block of hKv1.5 (in words) | inhibition at 0.03 µM [1] | inhibition at 0.03 µM [2] | inhibition at 0.03 µM [3] | inhibition at 0.1 µM [4] | Rate-Dpdnt Ratio (100 nM) | inhibition at 0.1 µM [5] | Use-Dpdnt Ratio (100 nM) | inhibition at 0.1 µM [6] | selective blockade of hKv1.5 (in words) | rate-dependent ratio for block of hKv1.5 (bound) | use-dependent ratio for block of hKv1.5 (bound) | inhibition at 0.3 µM [7] | inhibition at 0.3 µM [8] | Use-Dpdnt Ratio (300 nM) | also measured
1 | COc1ccc(-n2nc(Sc3ccc(Cl)cc3)c(C)c(C#N)c2=O)cc1 [C, 6-(4-Chlorophenylthio)-2-(4-methoxyphenyl)-5-methyl-3-oxo-2,3-dihydropyridazine-4-carbonitrile] | rate-dependent blockers | use-dependentblockade | 6.6% | 15.7% | 38% | 51% | 0.83 | 75.5% | 0.68 | 91.1% | selective blockade | < 1 | < 1 |  |  |  | Rate-Dpdnt Ratio (30 nM): 0.41; Use-Dpdnt Ratio (30 nM): 0.42
2 | CC1CCC(C(C)C)C(P(=O)(c2ccccc2)c2ccccc2)C1 (stereo not drawn) [A, (2-Isopropyl-5-methylcyclohexyl)diphenylphosphine oxide] | rate-dependent blockers; also recorded: strong rate-dependent profile | use-dependentblockade | 21.2% | 38.5% | 57.5% | 32.1% |  | 64.6% |  | 82.9% |  |  |  |  |  |  | use-dependent block of hKv1.5 (in words) (listed as (2-isopropyl-5-methylcyclohexyl) diphenyl-phosphine oxide): strong use-dependent profile
3 | Cc1cc(C)c(CP(=O)(c2ccccc2)c2ccccc2)c(-c2ccc(F)c(C)c2)c1 [B, 2-(Diphenylphosphinylmethyl)-4'-fluoro-3,5,3'-trimethyl-biphenyl] | rate-dependent blockers | use-dependentblockade |  |  |  | 23.3% | 0.66 | 29.6% | 0.79 | 44.9% | selective blockade | < 1 | < 1 | 43.5% | 56.6% | 0.77 | Rate-Dpdnt Ratio (300 nM): 0.84; inhibition at 0.3 µM (300 nM, 30th pulse @ 3 Hz, read-out: Average % Block, Rate-Dpdnt, 30th pulse): 67.5%
4 | COc1ccc(-n2nc(Sc3ccc(C)cc3)c(C)c(C#N)c2=O)cc1 [D] |  | use-dependentblockade |  |  |  | 31.1% |  | 34% | 0.91 |  | selective blockade |  | < 1 | 52% | 62.5% | 0.83 | 
